The values below come from patent US7285556B2, “Thienopyrimidine-based inhibitors of the src family” (Board of Regents, The University of Texas Systems, priority 2000, dated 2007).

Molecules are shown by their SMILES. Read-outs that look alike come from different tables or passages of the source.

One assay deals with T1, Recombinant human Src (Homo sapiens, UniProt P12931).
T1 construct: made in house; host or cells: baculovirus-insect cell system
The assay is described as follows: Src tyrosine kinase activity, poly E4Y and 32P-ATP. It is filed as biochemical. The method, boiled down:
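Recombinant GST-Csk (E. coli) or baculovirus-expressed human Src assayed on poly E4Y in 0.15 M EPPS-NaOH pH 8.0, 6 mM MgCl2, 0.2 mM γ32P-ATP, 10% glycerol, 0.1% Triton X-100. Read-out is 32P incorporation into poly E4Y; for ATP variation (0–250 μM), poly E4Y held at 150 μg/ml.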

A further assay deals with T2, Csk (Homo sapiens, UniProt P41240).
T2 construct: GST (glutathione-S-transferase) (N); made in house; host or cells: E. coli (pGEX vector)
T2 sequence (P41240 whole entry, species assumed): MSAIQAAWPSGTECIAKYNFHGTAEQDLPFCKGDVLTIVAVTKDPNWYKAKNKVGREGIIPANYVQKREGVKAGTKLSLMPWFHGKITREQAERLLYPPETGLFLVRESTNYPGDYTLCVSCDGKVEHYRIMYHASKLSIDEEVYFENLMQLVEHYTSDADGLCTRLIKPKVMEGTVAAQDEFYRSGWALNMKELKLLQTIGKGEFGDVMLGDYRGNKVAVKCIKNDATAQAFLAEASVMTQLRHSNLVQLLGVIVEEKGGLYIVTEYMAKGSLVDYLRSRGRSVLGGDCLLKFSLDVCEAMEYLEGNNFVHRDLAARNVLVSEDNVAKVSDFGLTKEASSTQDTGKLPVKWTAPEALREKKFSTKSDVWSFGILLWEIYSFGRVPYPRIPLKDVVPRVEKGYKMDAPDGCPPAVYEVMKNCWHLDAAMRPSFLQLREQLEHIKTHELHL
The assay is described as follows: Csk tyrosine kinase activity, poly E4Y and 32P-ATP. The class given is biochemical. As to the method: Recombinant human Src was expressed using the baculovirus-insect cell system and purified as published (Budde et al., 1993 and 2000). Recombinant Csk and the FGF receptor (FGFr) were expressed as glutathione-S-transferase fusion proteins using the pGEX expression vector and E. coli, and purified as described (Sun & Budde, 1995).
The tyrosine kinase activity of Src, Csk and FGFr was determined using poly E4Y and ^32P-ATP. Briefly, enzymes were assayed in a reaction mixture consisting of 0.15 M EPPS-NaOH (pH 8.0) with 6 mM MgCl2, 0.2 mM γ^32P-ATP (0.2-0.4 mCi/μmol), 10% glycerol, 0.1% Triton X-100, and poly E4Y. Poly E4Y is a synthetic peptide whose phosphorylation is measured in this assay by the addition of the radioactively labeled phosphate from the ATP (Budde et al., 1995). […] When ATP was varied (0, 50, 100 and 250 μM), poly E4Y was kept constant at 150 μg/ml.

[1] abbreviates: Table 2, read-out: Src IC50 (especially good inhibitors of Src).
[2] abbreviates: read-out: IC50 (preferred compounds for treatment of Src family-related disease).
Where [3] appears, read: screening assay, 50 μg/ml poly E4Y, 0.2 mM 32P-ATP.
[4] abbreviates: screening assay, 50 μg/ml poly E4Y, 0.2 mM 32P-ATP, read-out: Src IC50.

T1 sequence (P12931 whole entry): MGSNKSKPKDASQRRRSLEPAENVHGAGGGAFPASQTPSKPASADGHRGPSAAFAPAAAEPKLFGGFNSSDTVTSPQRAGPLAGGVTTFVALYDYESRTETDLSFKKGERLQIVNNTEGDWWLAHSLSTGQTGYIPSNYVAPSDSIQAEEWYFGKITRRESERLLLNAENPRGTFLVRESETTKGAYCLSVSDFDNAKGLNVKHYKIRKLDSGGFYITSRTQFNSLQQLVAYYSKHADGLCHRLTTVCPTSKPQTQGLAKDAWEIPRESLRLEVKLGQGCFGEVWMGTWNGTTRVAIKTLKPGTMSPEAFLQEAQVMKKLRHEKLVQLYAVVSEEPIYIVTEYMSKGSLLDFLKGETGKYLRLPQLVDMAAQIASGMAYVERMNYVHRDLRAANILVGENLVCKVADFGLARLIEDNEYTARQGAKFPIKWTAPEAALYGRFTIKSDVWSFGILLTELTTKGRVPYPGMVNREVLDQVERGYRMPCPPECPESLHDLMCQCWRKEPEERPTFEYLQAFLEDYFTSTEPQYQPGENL

In the case of `Clc1ccccc1-c1cc2ncnc(NN=Cc3cccs3)c2s1` [Compound 320, 2-Thiophenecarboxaldehyde(6-(2-chlorophenyl)thieno[3,2-d]pyrimidin-4-yl)hydrazone], the IC50 at Recombinant human Src (setting [1]) was not above 2000 nM; at Recombinant human Src (setting [2]), less than 2000 nM; at Csk (setting [3]), more than 135000 nM.

On to `CCOc1ccc(C=NNc2ncnc3c(C)csc23)cc1` [Compound 48, 4-Ethoxybenzaldehyde(7-methylthieno[3,2-d]pyrimidin-4-yl)hydrazone], for which the concentration for half-maximal inhibition (IC50) at Recombinant human Src (setting [1]) is not above 2000 nM; on Recombinant human Src (setting [2]), less than 2000 nM; against Csk (setting [3]), more than 160000 nM.

In the case of `COc1ccc(C=NNc2ncnc3c(C)c(C(Cc4ccccc4)c4ccccc4)sc23)cc1O` (stereo not shown) [Compound 475, 3-Hydroxy-4-methoxybenzaldehyde(6-(1-benzyl-1-phenyl)methyl-7-methylthieno[3,2-d]pyrimidin-4-yl)hydrazone], the IC50 was not above 2000 nM at Recombinant human Src (setting [1]); less than 2000 nM on Recombinant human Src (setting [2]); more than 101000 nM against Csk (poly E4Y and 32P-ATP).

Take `COc1ccc(C=NNc2ncnc3c2sc2ncccc23)cc1O` [Compound 247, 3-Hydroxy-4-methoxybenzaldehyde(pyrido[3′,2′:4,5]thieno[3,2-d]pyrimidin-4-yl)hydrazone]: the IC50 at Recombinant human Src (setting [1]) was not above 2000 nM; on Recombinant human Src (setting [2]), less than 2000 nM; against Csk (setting [3]), more than 142000 nM.

`Cc1ccc(C=NNc2ncnc3c(C)csc23)s1` [Compound 120, 5-Methyl-2-thiophenecarboxaldehyde(7-methylthieno[3,2-d]pyrimidin-4-yl)hydrazone]: the 50% inhibitory concentration (IC50) is not above 2000 nM at Recombinant human Src (setting [1]), less than 2000 nM on Recombinant human Src (setting [2]) and more than 173000 nM at Csk (setting [3]).

Regarding `CCOc1cc(C=NNc2ncnc3c(C)csc23)ccc1O` [Compound 50, 3-Ethoxy-4-hydroxybenzaldehyde(7-methylthieno[3,2-d]pyrimidin-4-yl)hydrazone], the results for the IC50 at Recombinant human Src (setting [1]), at Recombinant human Src (setting [2]) and against Csk (setting [3]) were not above 2000 nM, less than 2000 nM and more than 152000 nM, respectively.

As to `Ic1cc2ncnc(NN=Cc3cccnc3)c2s1` [Compound 394, 3-Pyridinecarboxaldehyde(6-iodothieno[3,2-d]pyrimidin-4-yl)hydrazone], the IC50 was not above 2000 nM at Recombinant human Src (setting [1]), less than 2000 nM at Recombinant human Src (setting [2]) and more than 131000 nM on Csk (setting [3]).

`COc1cccc(C=NNc2ncnc3c(C)csc23)c1` [Compound 137, 3-Methoxybenzaldehyde(7-methylthieno[3,2-d]pyrimidin-4-yl)hydrazone]: the IC50 on Recombinant human Src (setting [1]) is not above 2000 nM; at Recombinant human Src (setting [2]) it was less than 2000 nM; against Csk (setting [3]), more than 168000 nM.

On to `COc1cc(C=NNc2ncnc3c(C)csc23)ccc1O` [Compound 53, 4-Hydroxy-3-methoxybenzaldehyde(7-methylthieno[3,2-d]pyrimidin-4-yl)hydrazone], for which the concentration for half-maximal inhibition (IC50) on Recombinant human Src (setting [1]) was not above 2000 nM; on Recombinant human Src (setting [2]), less than 2000 nM; at Csk (setting [3]), more than 159000 nM.

Consider `Cc1c(/C=C/c2ccccc2)sc2c(NN=Cc3cccnc3)ncnc12` [Compound 447, 3-Pyridinecarboxaldehyde(7-methyl-6-(trans-2-phenylvinyl)-thieno[3,2-d]pyrimidin-4-yl)hydrazone], for which the IC50 on Recombinant human Src (setting [1]) was not above 2000 nM; on Recombinant human Src (setting [2]), less than 2000 nM; on Csk (setting [3]) it was more than 135000 nM.

On to `Cc1c(I)sc2c(NN=Cc3cccnc3)ncnc12` [Compound 372, 3-Pyridinecarboxaldehyde(6-iodo-7-methylthieno[3,2-d]pyrimidin-4-yl)hydrazone], for which the figures for the IC50 at Recombinant human Src (setting [1]), at Recombinant human Src (setting [2]) and against Csk (setting [3]) were not above 2000 nM, less than 2000 nM and more than 127000 nM, respectively.

As for `CS(=O)(=O)c1ccc(-c2cc3ncnc(NN=Cc4cccnc4)c3s2)cc1` [Compound 290, 3-Pyridinecarboxaldehyde(6-(4-methanesulphonylphenyl)thieno-[3,2-d]pyrimidin-4-yl)hydrazone], the IC50 on Recombinant human Src (setting [1]) was not above 2000 nM; at Recombinant human Src (setting [2]), less than 2000 nM; at Csk (setting [3]) it was more than 122000 nM.

Consider `COc1ccc(C=NNc2ncnc3c(C)csc23)cc1OC` [Compound 17, 3,4-Dimethoxybenzaldehyde(7-methylthieno[3,2-d]pyrimidin-4-yl)hydrazone], for which the IC50 on Recombinant human Src (setting [1]) was not above 2000 nM; at Recombinant human Src (setting [2]), less than 2000 nM; on Csk (setting [3]), more than 152000 nM.

For the molecule `Clc1ccccc1-c1cc2ncnc(NN=Cc3cccnc3)c2s1` [Compound 317, 3-Pyridinecarboxaldehyde(6-(2-chlorophenyl)thieno[3,2-d]pyrimidin-4-yl)hydrazone], the half-maximal inhibitory concentration (IC50) was not above 2000 nM at Recombinant human Src (setting [1]), less than 2000 nM at Recombinant human Src (setting [2]) and more than 137000 nM at Csk (setting [3]).

`Cc1csc2c(NN=Cc3cccc(F)c3)ncnc12` [Compound 52, 3-Fluorobenzaldehyde(7-methylthieno[3,2-d]pyrimidin-4-yl)hydrazone]: the IC50 at Recombinant human Src (setting [1]) was not above 2000 nM; on Recombinant human Src (setting [2]), less than 2000 nM; against Csk (setting [3]), more than 175000 nM.

For the molecule `COc1ccc(-c2sc3c(NN=Cc4ccc(OC)c(O)c4)ncnc3c2C)cc1` [Compound 425, 3-Hydroxy-4-methoxybenzaldehyde(6-(4-methoxyphenyl)-7-methylthieno[3,2-d]pyrimidin-4-yl)hydrazone], the IC50 is not above 2000 nM at Recombinant human Src (setting [1]), less than 2000 nM at Recombinant human Src (setting [2]) and more than 119000 nM against Csk (setting [3]).

`C(=NNc1ncnc2c(-c3ccsc3)csc12)c1cccnc1` [Compound 209]: the IC50 on Recombinant human Src (setting [4]) and on Csk (setting [3]) was more than 148000 nM each time.

With `COc1ccc(C=NNc2ncnc3c(C)c(I)sc23)cc1O` [Compound 375, 3-Hydroxy-4-methoxybenzaldehyde(6-iodo-7-methylthieno[3,2-d]pyrimidin-4-yl)hydrazone], the IC50 at Recombinant human Src (setting [1]) is not above 2000 nM; on Recombinant human Src (setting [2]), less than 2000 nM; on Csk (setting [3]), more than 114000 nM.

Consider `O=C(O)c1ccc(C=NNc2ncnc3cc(-c4ccc(Cl)cc4)sc23)cc1` [Compound 309, 4-Carboxybenzaldehyde(6-(4-chlorophenyl)thieno[3,2-d]pyrimidin-4-yl)hydrazone], for which the IC50 at Recombinant human Src (setting [1]) was not above 2000 nM; at Recombinant human Src (setting [2]) it was less than 2000 nM; at Csk (setting [3]), more than 122000 nM.

With `Cc1csc2c(NN=Cc3cccc(Cl)c3)ncnc12` [Compound 19, 3-Chlorobenzaldehyde(7-methylthieno[3,2-d]pyrimidin-4-yl)hydrazone], the figures for the IC50 at Recombinant human Src (setting [1]), at Recombinant human Src (setting [2]) and at Csk (setting [3]) were not above 2000 nM, less than 2000 nM and more than 165000 nM, respectively.

Take `Brc1cc2ncnc(NN=Cc3cccnc3)c2s1` [Compound 221, 3-Pyridinecarboxaldehyde(6-bromothieno[3,2-d]pyrimidin-4-yl)hydrazone]: the values for the IC50 on Recombinant human Src (setting [1]), at Recombinant human Src (setting [2]) and against Csk (setting [3]) were not above 2000 nM, less than 2000 nM and more than 150000 nM, respectively.

For the molecule `Cc1csc2c(NN=Cc3ccc(C#N)cc3)ncnc12` [Compound 121, 4-Cyanobenzaldehyde(7-methylthieno[3,2-d]pyrimidin-4-yl)hydrazone], the IC50 on Recombinant human Src (setting [1]) is not above 2000 nM; at Recombinant human Src (setting [2]), less than 2000 nM; on Csk (setting [3]), more than 170000 nM.

For `COc1ccc(-c2sc3c(NN=Cc4cccnc4)ncnc3c2C)cc1` [Compound 422, 3-Pyridinecarboxaldehyde(6-(4-methoxyphenyl)-7-methylthieno[3,2-d]pyrimidin-4-yl)hydrazone], the half-inhibitory concentration (IC50) at Recombinant human Src (setting [1]) is not above 2000 nM; at Recombinant human Src (setting [2]), less than 2000 nM; on Csk (setting [3]), more than 133000 nM.

Regarding `Cc1c(-c2ccc(CO)cc2)sc2c(NN=Cc3cccs3)ncnc12` [Compound 438, 2-Thiophenecarboxaldehyde(6-(4-hydroxymethylphenyl)-7-methylthieno[3,2-d]pyrimidin-4-yl)hydrazone], the 50% inhibitory concentration (IC50) was not above 2000 nM on Recombinant human Src (setting [1]), less than 2000 nM at Recombinant human Src (setting [2]) and more than 131000 nM against Csk (setting [3]).

As to `Cc1c(-c2ccsc2)sc2c(NN=Cc3cccs3)ncnc12` [Compound 381, 2-Thiopnhenecarboxaldehyde(7-methyl-6-(3-thienyl)thieno[3,2-d]pyrimidin-4-yl)hydrazone], the figures for the concentration for half-maximal inhibition (IC50) on Recombinant human Src (setting [1]), on Recombinant human Src (setting [2]) and against Csk (setting [3]) were not above 2000 nM, less than 2000 nM and more than 140000 nM, respectively.

As for `Cc1csc2c(NN=Cc3ccc([N+](=O)[O-])cc3)ncnc12` [Compound 24], the IC50 on Recombinant human Src (setting [4]) and on Csk (setting [3]) was more than 160000 nM in each case.

As to `Cc1csc2c(NN=Cc3ccncc3)ncnc12` [Compound 16, 4-Pyridinecarboxaldehyde(7-methylthieno[3,2-d]pyrimidin-4-yl)hydrazone], the half-maximal inhibitory concentration (IC50) was not above 2000 nM on Recombinant human Src (setting [1]), less than 2000 nM on Recombinant human Src (setting [2]) and more than 186000 nM on Csk (setting [3]).

On to `Cc1c(-c2ccccc2Cl)sc2c(NN=Cc3cccnc3)ncnc12` [Compound 389, 3-Pyridinecarboxaldehyde(6-(2-chlorophenyl)7-methylthieno[3,2-d]pyrimidin-4-yl)hydrazone], for which the IC50 on Recombinant human Src (setting [1]) is not above 2000 nM; at Recombinant human Src (setting [2]), less than 2000 nM; at Csk (setting [3]) it was more than 132000 nM.
